Experimental data from ChEMBL document CHEMBL1148027, “Novel glucocorticoids containing a 6,5-bicyclic core fused to a pyrazole ring: synthesis, in vitro profile, molecular modeling studies, and in vivo experiments” (Bioorg Med Chem Lett, 2007).
Each block holds one compound with its values, some of them ahead of it. The source made the active and inactive calls. The calls are words filed in the database; no cut-off is given here.

Tests used:
[1] = molecular target: Glucocorticoid receptor (Mus musculus) (UniProt P06537); assay: Activity at mouse glucocorticoid receptor in C2C12 cells assessed as mouse glutamine synthetase activity
[2] = molecular target: T1, Glucocorticoid receptor (Homo sapiens) (UniProt P04150); assay: Activity at human glucocorticoid receptor in human HepG2 cells assessed as tyrosine amino transferase activity; format: cell-based
T1 sequence (whole entry): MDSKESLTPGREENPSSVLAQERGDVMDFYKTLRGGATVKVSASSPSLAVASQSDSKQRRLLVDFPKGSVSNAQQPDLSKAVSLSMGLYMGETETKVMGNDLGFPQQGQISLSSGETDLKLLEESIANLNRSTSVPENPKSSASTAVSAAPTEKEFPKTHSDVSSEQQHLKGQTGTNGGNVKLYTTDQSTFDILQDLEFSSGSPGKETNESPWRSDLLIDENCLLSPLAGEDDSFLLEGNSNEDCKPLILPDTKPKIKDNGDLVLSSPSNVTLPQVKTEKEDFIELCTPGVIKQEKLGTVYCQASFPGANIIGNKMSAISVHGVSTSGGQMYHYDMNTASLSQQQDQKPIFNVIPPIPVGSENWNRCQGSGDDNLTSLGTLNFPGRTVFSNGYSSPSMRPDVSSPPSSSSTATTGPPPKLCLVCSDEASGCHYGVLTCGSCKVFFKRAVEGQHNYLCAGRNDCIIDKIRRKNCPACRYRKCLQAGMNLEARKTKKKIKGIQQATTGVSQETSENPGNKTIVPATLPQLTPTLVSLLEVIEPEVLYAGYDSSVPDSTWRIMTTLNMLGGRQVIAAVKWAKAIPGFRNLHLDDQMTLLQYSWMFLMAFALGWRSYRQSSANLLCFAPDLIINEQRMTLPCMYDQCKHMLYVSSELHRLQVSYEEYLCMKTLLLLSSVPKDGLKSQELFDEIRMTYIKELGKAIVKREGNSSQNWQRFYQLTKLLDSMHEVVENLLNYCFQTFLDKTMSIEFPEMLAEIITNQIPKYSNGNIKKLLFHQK

[3] = Displacement of [3H]dexamethasone from human glucocorticoid receptor alpha
[4] = molecular target: T1, Glucocorticoid receptor (Homo sapiens); assay: (§1) Activity at human glucocorticoid receptor in human A549 cells assessed as repression of human IL6; format: cell-based
[5] = species on record: Mus musculus; assay: animal or person; conditions: read-out: Inhibition
[6] = test system: Mus musculus; assay: Antiinflammatory activity in mouse assessed as inhibition of LPS-induced TNFalpha at 3 mg/kg; format: functional; design: scale not given: the % may be the effect or the level left
[7] = molecular target: T2, Glucocorticoid receptor (Homo sapiens, UniProt P04150); assay: as §1; format: cell-based
T2 sequence (P04150 whole entry): T1 sequence (whole entry)

[8] = test system: Mus musculus; assay: Antiinflammatory activity in mouse assessed as inhibition of LPS-induced TNFalpha at 30 mg/kg relative to prednisolone; format: functional
[9] = test system: Mus musculus; assay: Normalized AUC in iv dosed mouse; format: functional, organism-based
[10] = test system: Mus musculus; assay: Oral bioavailability in mouse; format: functional, organism-based
[11] = test system: Mus musculus; assay: Half life in iv dosed mouse; format: functional, organism-based
[12] = test system: Mus musculus; assay: Clearance in iv dosed mouse; format: functional, organism-based

Chain of Glucocorticoid receptor (Mus musculus) (P06537 whole entry, looked up): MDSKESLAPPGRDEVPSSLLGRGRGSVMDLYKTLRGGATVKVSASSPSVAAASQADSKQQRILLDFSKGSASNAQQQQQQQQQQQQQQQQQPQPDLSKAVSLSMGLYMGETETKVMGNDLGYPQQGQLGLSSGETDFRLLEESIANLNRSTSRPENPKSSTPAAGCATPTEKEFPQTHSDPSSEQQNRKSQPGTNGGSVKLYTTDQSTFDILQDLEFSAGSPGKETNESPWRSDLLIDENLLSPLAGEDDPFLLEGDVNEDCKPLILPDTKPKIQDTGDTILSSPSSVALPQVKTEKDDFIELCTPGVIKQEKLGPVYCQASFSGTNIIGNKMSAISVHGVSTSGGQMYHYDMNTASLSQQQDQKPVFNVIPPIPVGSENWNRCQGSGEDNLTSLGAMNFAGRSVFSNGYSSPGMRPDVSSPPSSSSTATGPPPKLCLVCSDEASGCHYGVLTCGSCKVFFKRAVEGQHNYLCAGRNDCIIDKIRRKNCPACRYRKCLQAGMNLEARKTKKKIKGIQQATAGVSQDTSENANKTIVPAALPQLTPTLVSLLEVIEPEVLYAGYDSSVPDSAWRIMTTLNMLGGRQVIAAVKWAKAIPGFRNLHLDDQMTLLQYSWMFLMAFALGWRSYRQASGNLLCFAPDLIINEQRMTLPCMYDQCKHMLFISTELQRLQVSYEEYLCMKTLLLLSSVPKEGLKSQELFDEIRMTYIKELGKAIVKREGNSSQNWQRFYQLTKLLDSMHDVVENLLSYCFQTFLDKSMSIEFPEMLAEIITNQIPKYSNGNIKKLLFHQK

SMILES: C[C@]12Cc3cnn(-c4ccc(F)cc4)c3C=C1CCC[C@@H]2[C@@H](O)c1cc2ccccc2s1
EC50 [1]: 1210 nM

Activity [2]: inactive
Activity [1]: inactive
IC50 [3]: 69.1 nM
SMILES: C[C@]12Cc3cnn(-c4ccc(F)cc4)c3C=C1CC[C@@H]2[C@@H](O)c1cc2ccccc2s1

IC50 [3]: 5.1 nM
SMILES: C[C@]12Cc3cnn(-c4ccc(F)cc4)c3C=C1CCC[C@@H]2[C@@H](O)c1csc2ccccc12

Activity [2]: inactive
Activity [1]: inactive
IC50 [3]: 86 nM
SMILES: C[C@]12Cc3cnn(-c4ccc(F)cc4)c3C=C1CC[C@@H]2[C@@H](O)c1ccc2ccccc2c1

EC50 [1]: 3 nM
IC50 [3]: 1.5 nM
SMILES: C[C@]12Cc3cnn(-c4ccc(F)cc4)c3C=C1CCC[C@@H]2[C@H](O)c1csc2ccccc12

Activity [2]: inactive
Activity [1]: inactive
IC50 [3]: 198 nM
SMILES: C[C@]12Cc3cnn(-c4ccc(F)cc4)c3C=C1CC[C@@H]2[C@H](O)c1ccc2ccccc2c1

Activity [4]: inactive
Activity [2]: inactive
IC50 [3]: 689 nM
SMILES: C[C@]12Cc3cnn(-c4ccc(F)cc4)c3C=C1CC[C@@H]2[C@H](O)c1cc2ccccc2s1

SMILES: C[C@]12C=CC(=O)C=C1CC[C@@H]1[C@@H]2[C@@H](O)C[C@@]2(C)[C@H]1CC[C@]2(O)C(=O)CO [PREDNISOLONE]
inhibition in vivo at 3 mg/kg [5]: 100%
Activity [6]: 71%

EC50 [7]: 1 nM
IC50 [3]: 5.1 nM
SMILES: C[C@]12Cc3cnn(-c4ccc(F)cc4)c3C=C1CCC[C@@H]2[C@@H](O)c1ccsc1

SMILES: C[C@]12Cc3cnn(-c4ccc(F)cc4)c3C=C1CC[C@@H]2[C@@H](O)c1csc2ccccc12
inhibition in vivo at 30 mg/kg [8]: 113%

SMILES: C[C@]12Cc3cnn(-c4ccc(F)cc4)c3C=C1CC[C@@H]2[C@H](O)c1csc2ccccc12
AUC [9]: 1.7 µM·h/mg/kg
inhibition in vivo at 30 mg/kg [8]: 103%
bioavailability [10]: 34%
T1/2 [11]: 7.8 h
CL (mL.min-1.kg-1) [12]: 22.3
